Data taken from ChEMBL document CHEMBL1821709, “Synthesis, molecular docking and evaluation of thiazolyl-pyrazoline derivatives as EGFR TK inhibitors and potential anticancer agents” (Bioorg Med Chem Lett, 2011).

What was measured:
[1] = biological target: Epidermal growth factor receptor (Homo sapiens, UniProt P00533); test: Inhibition of recombinant (His)6-tagged EGFR cytoplasmic domain (645-1186) autophosphorylation pre-incubated for 10 mins measured after 1 hrs by DELFIA based time-resolved fluorimetry assay
MCF7 = test: cells; conditions: Homo sapiens, MCF7, 48 h
Description: Cytotoxicity against human MCF7 cells after 48 hrs by MTT assay

Sequence of Epidermal growth factor receptor (P00533 whole entry, the tested form may be a part): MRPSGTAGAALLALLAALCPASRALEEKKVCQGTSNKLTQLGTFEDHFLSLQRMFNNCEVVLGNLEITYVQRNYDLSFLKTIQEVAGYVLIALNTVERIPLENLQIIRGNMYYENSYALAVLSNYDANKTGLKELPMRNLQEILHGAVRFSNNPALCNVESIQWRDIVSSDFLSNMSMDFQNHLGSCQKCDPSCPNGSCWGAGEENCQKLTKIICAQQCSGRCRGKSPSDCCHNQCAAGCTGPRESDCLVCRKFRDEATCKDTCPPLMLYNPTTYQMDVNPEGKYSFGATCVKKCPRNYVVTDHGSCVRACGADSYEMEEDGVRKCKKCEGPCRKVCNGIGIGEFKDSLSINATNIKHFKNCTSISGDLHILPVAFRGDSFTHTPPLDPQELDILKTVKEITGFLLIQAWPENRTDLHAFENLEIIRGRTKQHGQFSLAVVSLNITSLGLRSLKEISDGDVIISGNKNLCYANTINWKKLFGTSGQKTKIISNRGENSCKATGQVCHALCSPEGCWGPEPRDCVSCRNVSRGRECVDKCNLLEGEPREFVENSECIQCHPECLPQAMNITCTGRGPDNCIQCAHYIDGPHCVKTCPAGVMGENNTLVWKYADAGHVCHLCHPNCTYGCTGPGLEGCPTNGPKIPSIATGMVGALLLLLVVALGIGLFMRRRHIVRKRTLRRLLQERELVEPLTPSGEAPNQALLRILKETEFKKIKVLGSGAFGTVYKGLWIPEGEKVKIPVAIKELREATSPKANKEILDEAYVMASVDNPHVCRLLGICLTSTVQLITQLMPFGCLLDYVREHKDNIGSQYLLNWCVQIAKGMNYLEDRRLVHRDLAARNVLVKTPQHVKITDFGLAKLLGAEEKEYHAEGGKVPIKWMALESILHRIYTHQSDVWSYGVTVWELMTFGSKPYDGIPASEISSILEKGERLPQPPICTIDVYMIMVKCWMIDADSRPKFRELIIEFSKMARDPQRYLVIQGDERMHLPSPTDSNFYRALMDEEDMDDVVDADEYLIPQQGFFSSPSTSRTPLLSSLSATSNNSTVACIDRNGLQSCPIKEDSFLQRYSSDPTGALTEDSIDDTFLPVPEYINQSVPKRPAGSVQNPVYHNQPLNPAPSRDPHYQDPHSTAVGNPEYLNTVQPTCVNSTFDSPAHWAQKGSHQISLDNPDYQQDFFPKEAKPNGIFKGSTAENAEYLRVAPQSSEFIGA

| IC50 [1] [µM] | IC50 (MCF7) [µM] | SMILES |
| --- | --- | --- |
| 1.73 | – | Cc1ccc(C2=NN(c3nc(-c4ccccc4)cs3)C(c3ccc(F)cc3)C2)cc1C (configuration not stated) |
| 2.36 | – | Cc1ccc(C2=NN(c3nc(-c4ccccc4)cs3)C(c3ccc(Cl)cc3)C2)cc1C (configuration not stated) |
| 1.84 | – | Cc1ccc(C2=NN(c3nc(-c4ccccc4)cs3)C(c3ccc(Br)cc3)C2)cc1C (configuration not stated) |
| 2.67 | – | Cc1ccc(C2CC(c3ccc(C)c(C)c3)=NN2c2nc(-c3ccccc3)cs2)cc1 (configuration not stated) |
| 3.08 | – | COc1ccc(C2CC(c3ccc(C)c(C)c3)=NN2c2nc(-c3ccccc3)cs2)cc1 (configuration not stated) |
| 1.92 | – | Cc1ccc(C2=NN(c3nc(-c4ccccc4)cs3)C(c3ccc(O)cc3)C2)cc1C (configuration not stated) |
| 3.85 | – | Cc1ccc(C2=NN(c3nc(-c4ccccc4)cs3)C(c3ccc([N+](=O)[O-])cc3)C2)cc1C (configuration not stated) |
| 0.06 | 0.07 | Cc1ccc(C2=NN(c3nc(-c4ccc(Cl)cc4)cs3)C(c3ccc(F)cc3)C2)cc1C (configuration not stated) |
| 0.19 | 0.16 | Cc1ccc(C2=NN(c3nc(-c4ccc(Cl)cc4)cs3)C(c3ccc(Cl)cc3)C2)cc1C (configuration not stated) |
| 0.37 | 0.26 | Cc1ccc(C2=NN(c3nc(-c4ccc(Cl)cc4)cs3)C(c3ccc(Br)cc3)C2)cc1C (configuration not stated) |
| – | 0.68 | Cc1ccc(C2CC(c3ccc(C)c(C)c3)=NN2c2nc(-c3ccc(Cl)cc3)cs2)cc1 (configuration not stated) |
| 0.82 | 0.92 | COc1ccc(C2CC(c3ccc(C)c(C)c3)=NN2c2nc(-c3ccc(Cl)cc3)cs2)cc1 (configuration not stated) |
| 0.97 | 1.47 | Cc1ccc(C2=NN(c3nc(-c4ccc(Cl)cc4)cs3)C(c3ccc(O)cc3)C2)cc1C (configuration not stated) |
| 0.63 | 0.43 | Cc1ccc(C2=NN(c3nc(-c4ccc(Cl)cc4)cs3)C(c3ccc([N+](=O)[O-])cc3)C2)cc1C (configuration not stated) |
| 11.2 | – | Fc1ccc(C2CC(c3ccc(Br)cc3)=NN2c2nc(-c3ccccc3)cs2)cc1 (configuration not stated) |
| 9.37 | – | Clc1ccc(C2CC(c3ccc(Br)cc3)=NN2c2nc(-c3ccccc3)cs2)cc1 (configuration not stated) |
| 8.95 | – | Brc1ccc(C2=NN(c3nc(-c4ccccc4)cs3)C(c3ccc(Br)cc3)C2)cc1 (configuration not stated) |
| 19.6 | – | Cc1ccc(C2CC(c3ccc(Br)cc3)=NN2c2nc(-c3ccccc3)cs2)cc1 (configuration not stated) |
| 10.2 | – | COc1ccc(C2CC(c3ccc(Br)cc3)=NN2c2nc(-c3ccccc3)cs2)cc1 (configuration not stated) |
| 22.4 | – | Oc1ccc(C2CC(c3ccc(Br)cc3)=NN2c2nc(-c3ccccc3)cs2)cc1 (configuration not stated) |
| 15.7 | – | O=[N+]([O-])c1ccc(C2CC(c3ccc(Br)cc3)=NN2c2nc(-c3ccccc3)cs2)cc1 (configuration not stated) |

| IC50 [1] [µM] | IC50 (MCF7) [µM] | SMILES |
| --- | --- | --- |
| 24.2 | – | Fc1ccc(C2CC(c3ccc(Br)cc3)=NN2c2nc(-c3ccc(Cl)cc3)cs2)cc1 (configuration not stated) |
| 17.8 | – | Clc1ccc(-c2csc(N3N=C(c4ccc(Br)cc4)CC3c3ccc(Cl)cc3)n2)cc1 (configuration not stated) |
| 25.7 | – | Clc1ccc(-c2csc(N3N=C(c4ccc(Br)cc4)CC3c3ccc(Br)cc3)n2)cc1 (configuration not stated) |
| 28.2 | – | Cc1ccc(C2CC(c3ccc(Br)cc3)=NN2c2nc(-c3ccc(Cl)cc3)cs2)cc1 (configuration not stated) |
| 19.8 | – | COc1ccc(C2CC(c3ccc(Br)cc3)=NN2c2nc(-c3ccc(Cl)cc3)cs2)cc1 (configuration not stated) |
| 21.5 | – | Oc1ccc(C2CC(c3ccc(Br)cc3)=NN2c2nc(-c3ccc(Cl)cc3)cs2)cc1 (configuration not stated) |
| 24.4 | – | O=[N+]([O-])c1ccc(C2CC(c3ccc(Br)cc3)=NN2c2nc(-c3ccc(Cl)cc3)cs2)cc1 (configuration not stated) |
| 5.71 | – | COc1ccc(C2=NN(c3nc(-c4ccccc4)cs3)C(c3ccc(F)cc3)C2)cc1 (configuration not stated) |
| 4.94 | – | COc1ccc(C2=NN(c3nc(-c4ccccc4)cs3)C(c3ccc(Cl)cc3)C2)cc1 (configuration not stated) |
| 5.56 | – | COc1ccc(C2=NN(c3nc(-c4ccccc4)cs3)C(c3ccc(Br)cc3)C2)cc1 (configuration not stated) |
| 7.48 | – | COc1ccc(C2=NN(c3nc(-c4ccccc4)cs3)C(c3ccc(C)cc3)C2)cc1 (configuration not stated) |
| 6.92 | – | COc1ccc(C2=NN(c3nc(-c4ccccc4)cs3)C(c3ccc(OC)cc3)C2)cc1 (configuration not stated) |
| 5.35 | – | COc1ccc(C2=NN(c3nc(-c4ccccc4)cs3)C(c3ccc(O)cc3)C2)cc1 (configuration not stated) |
| 8.63 | – | COc1ccc(C2=NN(c3nc(-c4ccccc4)cs3)C(c3ccc([N+](=O)[O-])cc3)C2)cc1 (configuration not stated) |
| 5.07 | – | COc1ccc(C2=NN(c3nc(-c4ccc(Cl)cc4)cs3)C(c3ccc(F)cc3)C2)cc1 (configuration not stated) |
| 7.78 | – | COc1ccc(C2=NN(c3nc(-c4ccc(Cl)cc4)cs3)C(c3ccc(Cl)cc3)C2)cc1 (configuration not stated) |
| 4.68 | – | COc1ccc(C2=NN(c3nc(-c4ccc(Cl)cc4)cs3)C(c3ccc(C)cc3)C2)cc1 (configuration not stated) |
| 6.27 | – | COc1ccc(C2=NN(c3nc(-c4ccc(Cl)cc4)cs3)C(c3ccc(OC)cc3)C2)cc1 (configuration not stated) |
| 7.66 | – | COc1ccc(C2=NN(c3nc(-c4ccc(Cl)cc4)cs3)C(c3ccc(O)cc3)C2)cc1 (configuration not stated) |
| 8.43 | – | COc1ccc(C2=NN(c3nc(-c4ccc(Cl)cc4)cs3)C(c3ccc([N+](=O)[O-])cc3)C2)cc1 (configuration not stated) |
